Source: US20110190137A1, “METHOD TO INHIBIT ETHYLENE RESPONSES IN PLANTS” (priority 2003, published 2011)

Tests used:
[1] = tested on: ethylene-induced epinasty in Patio variety tomato plants; test: Tomato epinasty test, volatile gas treatment; type: in vivo; conditions: for Gas @ 10 ppm: visual rating of protection against ethylene-induced epinasty: gas 10 ppm v/v, 10 ppm ethylene, scale 0 to 10 (10 = complete protection); for Gas @ 1000 ppm: visual rating of protection against ethylene-induced epinasty: gas 1000 ppm v/v, 10 ppm ethylene after 4 h, scored 16 h later, scale 0 (no protection) to 10 (complete protection)
Method: (§1) Objective: The test procedure is designed to determine the ability of an experimental compound to block the epinastic growth response induced by ethylene in tomato plants when the experimental compound is administered either as a volatile gas or as a component of a spray solution.
(§2) Treatment chambers are of an appropriate size for the test plants and are airtight. Each is fitted with a reusable septum to be used for injection of ethylene. Test plants are Patio variety tomato seedlings planted two plants per three inch square plastic pot.
Volatile gas treatment entails placing two pots of Patio var. tomatoes into a polystyrene 4.8 L volume treatment chamber along with one-half (upper or lower section) of a 50×9 mm plastic Petri dish containing a Gelman filter pad. The appropriate amount of experimental compound, dissolved in 1.0 ml acetone, is pipetted onto the filter pad and the chamber immediately sealed. Four hours later ethylene gas equal to 10 ppm v/v final concentration is injected into the sealed chamber. Sixteen hours later the chambers are opened in an exhaust hood, allowed to air and the plants scored visually for the degree of protection against ethylene-induced epinasty conferred by the experimental compound when compared to ethylene treated and untreated controls on a scale of 0 to 10. A rating of 10 means complete protection. A rating of 0 means no protection from the effects of ethylene. Gas treatment concentrations are volume/volume.

[2] = tested on: ethylene-induced epinasty in Patio variety tomato plants; test: Tomato epinasty test, spray application treatment; type: in vivo; conditions: spray 10 ppm in 10% acetone/90% water, 0.05% Silwett L-77; 10 ppm ethylene; scale 0 to 10 (10 = complete protection)
Method: as §1, §2
Spray application treatment entails using a DeVilbiss atomizer to completely cover all foliage and stems of two pots of Patio var. tomato plants with the appropriate amount of experimental compound dissolved in 10% acetone/90% water with 0.05% Silwett L-77 surfactant. Plants are air-dried in a drying hood for four hours then transferred to a 4.8 L polystyrene chamber which is sealed.
Ethylene gas equal to 10 ppm v/v final concentration is injected into the sealed chamber. Sixteen hours later the chambers are opened in an exhaust hood, allowed to air and the plants scored visually for the degree of protection against ethylene-induced epinasty conferred by the experimental compound when compared to ethylene treated and untreated controls on a scale of 0 to 10. A rating of 10 means complete protection. A rating of 0 means no protection from the effects of ethylene.

Compound | Gas @ 10 ppm: visual rating of protection against ethylene-induced epinasty [1] | Gas @ 1000 ppm: visual rating of protection against ethylene-induced epinasty [1] | Spray @10 ppm: visual rating of protection against ethylene-induced epinasty [2] | Gas @ 551 ppm: rating of protection against epinasty ([1]; gas 551 ppm (in cell), scale 0 to 10) | Gas, tested at 850 ppm: rating of protection against epinasty ([1]; gas 850 ppm (footnote b or in cell), scale 0 to 10)
CCCCCCCC1=C(C)C1 [Compound 74, 1-Heptyl-2-methyl-cyclopropene] | 0 | 10 | 0 | – | –
CC(C)(C1=CC1)c1ccccc1 [Compound 5, 1-(α,α-dimethylbenzyl)-cyclopropene] | 5 | – | 2 | – | –
1-(1-Methyl-2-pyrrolecarbonyloxypropyl)-cyclopropene [Compound 59] | 3 | – | 4 | – | –
Cc1cccc(CC2=CC2)c1 [Compound 29] | 10 | – | 10 | – | –
C[Si](C)(C)CC1=CC1 [Compound 64, 1-Trimethylsilylmethylcyclopropene] | 10 | – | 9 | – | –
O=C(OCC1=CC1)c1ccco1 [Compound 47] | 0 | – | 0 | 10(@551 | –
O=C(OCCC1=CC1)c1ccoc1 [Compound 48] | 10 | – | – | – | –
C1=C(CCC2CCCCC2)C1 [Compound 21] | 10 | – | 10 | – | –
Cc1ccc(SCCCCCCCCC2=CC2)cc1 [Compound 57, 1-(4-Methylphenylthiooctyl)-cyclopropene] | 0 | 10 | 2 | – | –
CS(=O)(=O)OCCC1=CC1 [Compound 68, 1-(2-Methanesulfonyloxyethyl)-cyclopropene] | 3 | 10 | 5 | – | –
C1=C(Cc2cccs2)C1 [Compound 2, 1-(2-Thienyl)methyl-cyclopropene] | 10 | – | 7 | – | –
C1=C(CC2CCCC2)C1 [Compound 31] | 9 | – | 7.5 | – | –
CC[Si](CC)(CC)CC1=CC1 [Compound 63, 1-Triethylsilylmethylcyclopropene] | 10 | – | 10 | – | –
O=S(=O)(OCCCCCCCCC1=CC1)c1ccccc1 [Compound 56, 1-(8-Benzenesulfonyloxyoctyl)-cyclopropene] | 5 | – | 10 | – | –
ClC1=C(c2ccccc2)C1(Cl)Cl [Compound 41, 1-Phenyl-2,3,3-trichlorocyclopropene] | 0 | 2 | 0 | – | –
CCCCCCCCC1=C(B(O)O)C1 [Compound 86, 2-Octyl-1-(boronic acid)-cyclopropene] | 10 | – | 0 | – | –
Clc1ccc(CCC2=CC2)cc1 [Compound 28] | 9.5 | – | 8 | – | –

Compound | Gas @ 10 ppm: visual rating of protection against ethylene-induced epinasty [1] | Gas @ 1000 ppm: visual rating of protection against ethylene-induced epinasty [1] | Spray @10 ppm: visual rating of protection against ethylene-induced epinasty [2] | Gas @ 551 ppm: rating of protection against epinasty ([1]; gas 551 ppm (in cell), scale 0 to 10) | Gas, tested at 850 ppm: rating of protection against epinasty ([1]; gas 850 ppm (footnote b or in cell), scale 0 to 10)
CCOC(=O)CCC1=C(Br)C1 [Compound 76] | 10 | – | 0 | – | –
Cc1ccc(C(=O)OCCCCC2=CC2)cc1 [Compound 44, 1-(4-Methylphenylcarbonyloxybutyl)-cyclopropene] | 0 | 7 | 0 | – | –
O=S(=O)(OCCC1=CC1)c1ccccc1 [Compound 10, 2-(2-Benzenesulfonyloxyethyl)-cyclopropene] | 10 | – | 10 | – | –
CS(=O)(=O)OCCCCC1=CC1 [Compound 85, 1-(4-Methanesulfonyloxybutyl)-cyclopropene] | 0 | 10 | 0 | – | –
C1=C(CCCC2OCCO2)C1 [Compound 33] | 8 | – | 0 | – | –
COc1ccccc1CC1=CC1 [Compound 26] | 10 | – | 5 | – | –
C1=C(Cc2ccccc2)C1 [Compound 17] | 9 | – | 2 | – | –
C1=C(CCCCc2ccccc2)C1 [Compound 27] | 10 | – | 10 | – | –
CC1=C([Si](C)(C)C)C1(C)C [Compound 79, 1-Trimethylsilyl-2,3,3-trimethylcyclopropene] | 10 | – | – | – | –
BrC1=C(Cc2ccccc2)C1 [Compound 45, 1-Benzyl-2-bromocyclopropene] | 5 | 10 | 0 | – | –
CC1(c2ccccc2)C=C1 [Compound 6, 3-Methyl-3-phenylcyclopropene] | 2.5 | 7 | 1 | – | –
ClC1=C(Cc2ccccc2)C1 [Compound 46, 1-Benzyl-2-chlorocyclopropene] | 5 | 10 | 0 | – | –
Clc1ccc(SCCC2=CC2)cc1 [Compound 9, 1-(2-(4-Chlorophenylthio)ethyl)cyclopropene] | 10 | – | 10 | – | –
COc1cccc(C(O)C2=C(C)C2)c1 (stereo not drawn) [Compound 39, 1-Methyl-2-(hydroxy(3-methoxyphenyl)methyl)cyclopropene] | 2 | 10 | 0 | – | –
CCSCCCCCCCC1=CC1 [Compound 70, 1-(7-Ethanethioheptyl)-cyclopropene] | 2 | – | 10 | – | –
C1=C(CCc2ccccc2)C1 [Compound 18] | 10 | – | 6 | – | –
C1=C(CCCCCCCn2ccnc2)C1 [Compound 12, 7-(1-Imidazole)-1-heptylcyclopropene] | 5.5 | – | 3.5 | – | 10^b
